From US12503438B2, “Compounds for the treatment of kinase-dependent disorders” (Exelixis, Inc., priority 2019, dated 2025)

Assays:
[1] = target: T1, Mer (Homo sapiens, UniProt Q12866); assay: Mer autophosphorylation ELISA in transient transfected 293A cells; format: cell-based; settings: cellular activity; MERTK-transfected 293A cells, phospho-Mer ELISA
T1 construct: host or cells: 293A cells (Thermo Fisher #R70507)
T1 sequence (Q12866 21-999): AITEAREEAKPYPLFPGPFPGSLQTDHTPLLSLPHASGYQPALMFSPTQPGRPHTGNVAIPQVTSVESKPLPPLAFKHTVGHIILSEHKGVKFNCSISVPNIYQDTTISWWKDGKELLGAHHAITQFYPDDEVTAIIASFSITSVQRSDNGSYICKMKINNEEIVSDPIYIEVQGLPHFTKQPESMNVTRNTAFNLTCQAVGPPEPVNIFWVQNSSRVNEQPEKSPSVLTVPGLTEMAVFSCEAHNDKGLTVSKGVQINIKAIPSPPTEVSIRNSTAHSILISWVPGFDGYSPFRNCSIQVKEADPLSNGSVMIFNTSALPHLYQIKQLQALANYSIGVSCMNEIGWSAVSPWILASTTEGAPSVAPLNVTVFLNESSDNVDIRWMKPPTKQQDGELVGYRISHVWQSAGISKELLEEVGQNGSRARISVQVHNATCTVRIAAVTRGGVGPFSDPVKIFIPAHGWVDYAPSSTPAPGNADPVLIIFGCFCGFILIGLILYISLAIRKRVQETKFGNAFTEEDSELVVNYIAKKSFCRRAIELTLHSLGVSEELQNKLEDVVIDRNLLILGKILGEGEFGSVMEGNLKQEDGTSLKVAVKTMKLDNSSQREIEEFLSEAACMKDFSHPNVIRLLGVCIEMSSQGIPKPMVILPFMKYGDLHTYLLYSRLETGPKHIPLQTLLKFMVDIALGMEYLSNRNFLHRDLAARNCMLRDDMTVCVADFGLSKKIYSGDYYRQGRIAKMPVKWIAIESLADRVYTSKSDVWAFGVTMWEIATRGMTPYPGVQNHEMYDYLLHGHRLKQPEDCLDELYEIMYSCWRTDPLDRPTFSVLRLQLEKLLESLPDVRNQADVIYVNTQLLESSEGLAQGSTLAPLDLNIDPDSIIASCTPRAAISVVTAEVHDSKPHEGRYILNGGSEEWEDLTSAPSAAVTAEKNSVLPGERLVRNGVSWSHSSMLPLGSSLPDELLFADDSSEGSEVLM
Description: 293A cells (Thermo Fisher #R70507) were seeded at 1.5×10^6 cells/well onto 100 mm dish (Greiner #664169), in DMEM (Thermo Fisher #11995-040) containing 10% FBS (Thermo Fisher #26140-079), 1% MEM NEAA (Thermo Fisher #11140-050), 1% GlutaMax (Thermo Fisher #35050-061), and 1% Penicillin Streptomycin (Thermo Fisher #15140-122). 293A cells were incubated at 37° C., 5% CO2 for 24 h and then transfected with 6 μg MERTK DNA (Genecopoeia #EX-Z8208-M02) using TransIT LT1 transfection reagent (Mirus-Bio #MIR2305). After 24 h incubation, the transfected 293A cells were seeded at 1×10^5 cells/well onto 96-well plates (Corning #3904) in DMEM growth medium overnight. Test compounds were serially diluted to produce an 8-point dose curve in fresh serum-free medium to a final concentration of 0.3% DMSO (vehicle) and added to the cells and incubated for 1 h. Cells were then immediately lysed with 150 μL of cold 1× lysis buffer [20 mM Tris, 137 mM sodium chloride, 2 mM EDTA, 10% glycerol, 1% NP-40 alternative, 1 mM activated sodium orthovanadate, 1 mM PefaBloc SC (Sigma-Aldrich #11429868001), protease/phosphatase inhibitor tablet (Thermo Fisher #A32959)]. Lysates were clarified by centrifugation and 50 μL/well added into the human phospho-Mer DuoSet IC ELISA (R&D Systems #DYC2579-2). Assay was performed according to manufacturer's instructions and sample phospho-Mer concentrations were extrapolated using human phospho-Mer control (R&D Systems #841793) as a standard. Positive control wells (100% activity) contained DMSO-treated cell lysates. Negative control wells (0% activity) contained reference inhibitor-treated cell lysates. IC50 values were calculated by nonlinear regression analysis using a 4-parameter logistic curve fit in ActivityBase XE (IDBS).

[2] = target: Met (Homo sapiens, UniProt P08581); assay: Met autophosphorylation ELISA in PC-3 cells; format: cell-based; set-up: endogenous in cells; host or cells: PC-3 prostate cancer cells (ATCC #CRL-1435); settings: cellular activity, HGF-stimulated, phospho-Met ELISA, read-out: c-Met IC50
Sequence of Met (P08581 25-1390): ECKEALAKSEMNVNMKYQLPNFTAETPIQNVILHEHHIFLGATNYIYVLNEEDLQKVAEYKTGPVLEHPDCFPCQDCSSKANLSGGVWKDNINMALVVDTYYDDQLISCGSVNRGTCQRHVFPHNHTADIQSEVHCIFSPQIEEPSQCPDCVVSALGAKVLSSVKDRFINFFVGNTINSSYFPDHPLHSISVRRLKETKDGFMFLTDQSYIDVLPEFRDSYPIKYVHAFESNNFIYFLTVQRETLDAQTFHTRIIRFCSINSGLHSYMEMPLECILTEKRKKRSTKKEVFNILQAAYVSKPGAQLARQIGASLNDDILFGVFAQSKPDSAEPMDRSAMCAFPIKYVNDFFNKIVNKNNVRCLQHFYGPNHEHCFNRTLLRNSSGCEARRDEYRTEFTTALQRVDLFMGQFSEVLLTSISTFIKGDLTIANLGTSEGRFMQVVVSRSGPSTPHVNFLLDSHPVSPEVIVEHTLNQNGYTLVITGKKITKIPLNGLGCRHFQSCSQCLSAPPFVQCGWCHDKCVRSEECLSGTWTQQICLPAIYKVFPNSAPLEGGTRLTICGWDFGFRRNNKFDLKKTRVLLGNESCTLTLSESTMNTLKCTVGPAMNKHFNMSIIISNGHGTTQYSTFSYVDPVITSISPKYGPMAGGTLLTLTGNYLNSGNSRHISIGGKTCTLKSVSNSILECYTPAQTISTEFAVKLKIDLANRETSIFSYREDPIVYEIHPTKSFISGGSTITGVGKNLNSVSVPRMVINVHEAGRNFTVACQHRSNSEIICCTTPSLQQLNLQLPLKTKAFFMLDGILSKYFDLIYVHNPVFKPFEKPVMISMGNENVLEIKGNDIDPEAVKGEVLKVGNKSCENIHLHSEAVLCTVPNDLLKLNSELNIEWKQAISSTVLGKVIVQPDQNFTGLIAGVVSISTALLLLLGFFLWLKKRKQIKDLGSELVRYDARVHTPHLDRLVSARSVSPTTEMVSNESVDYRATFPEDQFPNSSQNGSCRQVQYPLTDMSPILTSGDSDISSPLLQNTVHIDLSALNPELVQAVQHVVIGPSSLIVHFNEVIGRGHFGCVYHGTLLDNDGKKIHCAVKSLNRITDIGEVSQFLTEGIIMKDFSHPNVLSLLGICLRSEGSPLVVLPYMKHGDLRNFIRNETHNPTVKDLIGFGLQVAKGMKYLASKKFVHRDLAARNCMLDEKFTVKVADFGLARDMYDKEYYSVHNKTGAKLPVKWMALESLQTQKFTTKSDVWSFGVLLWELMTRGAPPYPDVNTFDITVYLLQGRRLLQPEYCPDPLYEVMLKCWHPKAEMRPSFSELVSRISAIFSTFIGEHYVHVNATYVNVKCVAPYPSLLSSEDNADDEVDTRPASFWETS
Outline: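 Phospho-Met (panTyr) sandwich ELISA on lysates of PC-3 cells given 100 ng/mL HGF for 10 min after 1 h compound exposure (8-point curve, 0.3% DMSO) following 3 h serum starvation. Normalised to HGF-stimulated DMSO and reference-inhibitor wells; 4-parameter logistic IC50.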

Question: Which results are given for Cc1cc2c(Oc3cc(F)c(NC(=O)C4(C(=O)Nc5ccc(F)cc5)CC4)cc3F)ccnc2cc1-c1ncc[nH]1 [Compound 121, 1-N′-[2,5-Difluoro-4-[7-(1H-imidazol-2-yl)-6-methylquinolin-4-yl]oxyphenyl]-1-N-(4-fluorophenyl)cyclopropane-1,1-dicarboxamide]?
Answer: IC50 [1]: 10 to 100 nM; IC50 [2]: 10 to 100 nM

Question: What does the source list for O=C(Nc1ccc(F)cc1)C1(C(=O)Nc2ccc(Oc3ccnc4cc(-c5cnn(C6CCNCC6)c5)ccc34)cc2)CC1 [Compound 60, 1-N′-(4-Fluorophenyl)-1-N-[4-[7-(1-piperidin-4-ylpyrazol-4-yl)quinolin-4-yl]oxyphenyl]cyclopropane-1,1-dicarboxamide]?
Answer: IC50 [1]: 10 to 100 nM; IC50 [2]: 10 to 100 nM

Question: What does the source list for O=C(Nc1ccc(F)cc1)C1(C(=O)Nc2ccc(Oc3ccnc4cc(-c5ccn[nH]5)ccc34)cc2)CC1 [Compound 68, 1-N′-(4-Fluorophenyl)-1-N-[4-[7-(1H-pyrazol-5-yl)quinolin-4-yl]oxyphenyl]cyclopropane-1,1-dicarboxamide]?
Answer: IC50 [1]: 10 to 100 nM; IC50 [2]: 10 to 100 nM

Question: How did the IC50 [1] turn out when N#Cc1ccc(-c2ccc3c(Oc4ccc(NC(=O)C5(C(=O)Nc6ccc(F)cc6)CC5)cc4)ccnc3c2)cn1 [Compound 42, 1-N-[4-[7-(6-Cyanopyridin-3-yl)quinolin-4-yl]oxyphenyl]-1-N′-(4-fluorophenyl)cyclopropane-1,1-dicarboxamide] was run?
Answer: 10 to 100 nM

Question: What about the IC50 [2] of the same molecule?
Answer: 10 to 100 nM

Question: For O=C(Nc1ccc(F)cc1)C1(C(=O)Nc2ccc(Oc3ccnc4cc(-c5cn[nH]c5)ccc34)cc2)CC1 [Compound 67, 1-N′-(4-Fluorophenyl)-1-N-[4-[7-(1H-pyrazol-4-yl)quinolin-4-yl]oxyphenyl]cyclopropane-1,1-dicarboxamide], which IC50 [1] is on record?
Answer: ≤ 10 nM

Question: And the IC50 [2]?
Answer: ≤ 10 nM

Question: What does the source list for O=C(Nc1ccc(F)cc1)C1(C(=O)Nc2ccc(Oc3ccnc4cc(-c5cncnc5)ccc34)cc2)CC1 [Compound 27, 1-N′-(4-Fluorophenyl)-1-N-[4-(7-pyrimidin-5-ylquinolin-4-yl)oxyphenyl]cyclopropane-1,1-dicarboxamide]?
Answer: IC50 [1]: 10 to 100 nM; IC50 [2]: 10 to 100 nM

Question: With Cc1cc(-c2ccc3c(Oc4ccc(NC(=O)C5(C(=O)Nc6ccc(F)cc6)CC5)cc4)ccnc3c2)ccn1 [Compound 30, 1-N′-(4-Fluorophenyl)-1-N-[4-[7-(2-methylpyridin-4-yl)quinolin-4-yl]oxyphenyl]cyclopropane-1,1-dicarboxamide] as the molecule, how does the IC50 [1] read?
Answer: 10 to 100 nM

Question: What about the IC50 [2] of the same molecule?
Answer: 10 to 100 nM

Question: What does the source list for Cc1cc2c(Oc3cc(Cl)c(NC(=O)C4(C(=O)Nc5ccc(F)cc5)CC4)cc3F)ccnc2cc1-c1cnn(C)c1 [Compound 112, 1-N′-[2-Chloro-5-fluoro-4-[6-methyl-7-(1-methylpyrazol-4-yl)quinolin-4-yl]oxyphenyl]-1-N-(4-fluorophenyl)cyclopropane-1,1-dicarboxamide]?
Answer: IC50 [1]: 10 to 100 nM; IC50 [2]: 10 to 100 nM

Question: For O=C(Nc1ccc(F)cc1)C1(C(=O)Nc2ccc(Oc3ccnc4cc(-c5cncs5)ccc34)cc2)CC1 [Compound 116, 1-N′-(4-Fluorophenyl)-1-N-[4-[7-(1,3-thiazol-5-yl)quinolin-4-yl]oxyphenyl]cyclopropane-1,1-dicarboxamide], which IC50 [1] is on record?
Answer: 10 to 100 nM

Question: And the IC50 [2]?
Answer: 10 to 100 nM

Question: Which results are given for O=C(Nc1ccc(F)cc1)C1(C(=O)Nc2ccc(Oc3ccnc4cc(-c5ccccn5)ccc34)cc2)CC1 [Compound 85, 1-N′-(4-Fluorophenyl)-1-N-[4-(7-pyridin-2-ylquinolin-4-yl)oxyphenyl]cyclopropane-1,1-dicarboxamide]?
Answer: IC50 [1]: 10 to 100 nM; IC50 [2]: 10 to 100 nM

Question: How did the IC50 [1] turn out when N#Cc1cncc(-c2ccc3c(Oc4ccc(NC(=O)C5(C(=O)Nc6ccc(F)cc6)CC5)cc4)ccnc3c2)c1 [Compound 40, 1-N-[4-[7-(5-Cyanopyridin-3-yl)quinolin-4-yl]oxyphenyl]-1-N′-(4-fluorophenyl)cyclopropane-1,1-dicarboxamide] was run?
Answer: 10 to 100 nM

Question: And the IC50 [2]?
Answer: 10 to 100 nM

Question: O=C(Nc1ccc(F)cc1)C1(C(=O)Nc2ccc(Oc3ccnc4cc(-c5cnn(CCO)c5)ccc34)cc2)CC1 [Compound 18, 1-N′-(4-Fluorophenyl)-1-N-[4-[7-[1-(2-hydroxyethyl)pyrazol-4-yl]quinolin-4-yl]oxyphenyl]cyclopropane-1,1-dicarboxamide] was tested. Which IC50 [1] did it give?
Answer: ≤ 10 nM

Question: What about the IC50 [2] of the same molecule?
Answer: ≤ 10 nM

Question: CC(C)Oc1ccc(-c2ccc3c(Oc4ccc(NC(=O)C5(C(=O)Nc6ccc(F)cc6)CC5)cc4)ccnc3c2)cn1 [Compound 50, 1-N′-(4-Fluorophenyl)-1-N-[4-[7-(6-propan-2-yloxypyridin-3-yl)quinolin-4-yl]oxyphenyl]cyclopropane-1,1-dicarboxamide] was tested. Which IC50 [1] did it give?
Answer: 100 to 300 nM

Question: And the IC50 [2]?
Answer: 100 to 300 nM

Question: With Nc1ccc(-c2ccc3c(Oc4ccc(NC(=O)C5(C(=O)Nc6ccc(F)cc6)CC5)cc4)ccnc3c2)cn1 [Compound 38, 1-N-[4-[7-(6-Aminopyridin-3-yl)quinolin-4-yl]oxyphenyl]-1-N′-(4-fluorophenyl)cyclopropane-1,1-dicarboxamide] as the molecule, how does the IC50 [1] read?
Answer: 10 to 100 nM

Question: What about the IC50 [2] of the same molecule?
Answer: 10 to 100 nM

Question: For Cc1cc2c(Oc3ccc(NC(=O)C4(C(=O)Nc5ccc(F)cc5)CC4)cc3)ccnc2cc1-c1ncc[nH]1 [Compound 120, 1-N′-(4-Fluorophenyl)-1-N-[4-[7-(1H-imidazol-2-yl)-6-methylquinolin-4-yl]oxyphenyl]cyclopropane-1,1-dicarboxamide], which IC50 [1] is on record?
Answer: 10 to 100 nM

Question: What about the IC50 [2] of the same molecule?
Answer: 10 to 100 nM

Question: For O=C(Nc1ccc(F)cc1)C1(C(=O)Nc2ccc(Oc3ccnc4cc(-c5nnco5)ccc34)cc2)CC1 [Compound 73, 1-N′-(4-Fluorophenyl)-1-N-[4-[7-(1,3,4-oxadiazol-2-yl)quinolin-4-yl]oxyphenyl]cyclopropane-1,1-dicarboxamide], which IC50 [1] is on record?
Answer: 10 to 100 nM

Question: And the IC50 [2]?
Answer: 10 to 100 nM

Question: Which results are given for N#Cc1cc(-c2ccc3c(Oc4ccc(NC(=O)C5(C(=O)Nc6ccc(F)cc6)CC5)cc4)ccnc3c2)ccn1 [Compound 34, 1-N-[4-[7-(2-Cyanopyridin-4-yl)quinolin-4-yl]oxyphenyl]-1-N′-(4-fluorophenyl)cyclopropane-1,1-dicarboxamide]?
Answer: IC50 [1]: 10 to 100 nM; IC50 [2]: 10 to 100 nM

Question: With O=C(Nc1ccc(F)cc1)C1(C(=O)Nc2ccc(Oc3ccnc4cc(-c5ccnc(F)c5)ccc34)cc2)CC1 [Compound 33, 1-N′-(4-Fluorophenyl)-1-N-[4-[7-(2-fluoropyridin-4-yl)quinolin-4-yl]oxyphenyl]cyclopropane-1,1-dicarboxamide] as the molecule, how does the IC50 [1] read?
Answer: 10 to 100 nM

Question: What about the IC50 [2] of the same molecule?
Answer: 10 to 100 nM

Question: How did the IC50 [1] turn out when CC(=O)N1CCC(n2cc(-c3ccc4c(Oc5ccc(NC(=O)C6(C(=O)Nc7ccc(F)cc7)CC6)cc5)ccnc4c3)cn2)CC1 [Compound 62, 1-N-[4-[7-[1-(1-Acetylpiperidin-4-yl)pyrazol-4-yl]quinolin-4-yl]oxyphenyl]-1-N′-(4-fluorophenyl)cyclopropane-1,1-dicarboxamide] was run?
Answer: ≤ 10 nM

Question: And the IC50 [2]?
Answer: 10 to 100 nM

Question: With COc1cncc(-c2ccc3c(Oc4ccc(NC(=O)C5(C(=O)Nc6ccc(F)cc6)CC5)cc4)ccnc3c2)c1 [Compound 47, 1-N′-(4-Fluorophenyl)-1-N-[4-[7-(5-methoxypyridin-3-yl)quinolin-4-yl]oxyphenyl]cyclopropane-1,1-dicarboxamide] as the molecule, how does the IC50 [1] read?
Answer: 10 to 100 nM

Question: And the IC50 [2]?
Answer: 100 to 300 nM
